Data taken from PubChem BioAssay AID248 (DTP/NCI, 2004).
Where “and” joins values, the source holds several entries; their conditions need not be identical. Equal entries are not always repeated. Inconclusive results and toxic doses are left out. No stated cut-off is given here; in the data, active means T/C of 150% or more; inactive means T/C below 125%.

Tested on: L1210 leukemia ip in BDF1 mice, survival T/C
Assay: NCI In Vivo Anticancer Drug Screen. Data for tumor model L1210 Leukemia (intraperitoneal) in B6D2F1 (BDF1) mice
Conditions: endpoint: mean survival time, higher = longer survival
Procedure, shortened: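 In this screen, tumor-bearing mice given compound are compared to those given vehicle, and their survival values are reported as a treated-to-control quotient.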

[1] = dose: 100.0 mg/kg/injection, schedule: Q04DX002 (ip), vehicle: saline
[2] = dose: 200.0 mg/kg/injection, schedule: Q04DX002 (ip), vehicle: saline
[3] = dose: 400.0 mg/kg/injection, schedule: Q04DX002 (ip), vehicle: saline
[4] = dose: 6.25 mg/kg/injection, schedule: Q01DX009 (ip), vehicle: Klucel (hydroxypropylcellulose) (HPC)
[5] = dose: 12.5 mg/kg/injection, schedule: Q01DX009 (ip), vehicle: Klucel (hydroxypropylcellulose) (HPC)
[6] = dose: 50.0 mg/kg/injection, schedule: Q01DX001 (ip), vehicle: saline
[7] = dose: 100.0 mg/kg/injection, schedule: Q01DX001 (ip), vehicle: saline
[8] = dose: 50.0 mg/kg/injection, schedule: Q01DX009 (ip), vehicle: saline with Tween-80
[9] = dose: 400.0 mg/kg/injection, schedule: Q01DX009 (ip), vehicle: Klucel (hydroxypropylcellulose) (HPC)
[10] = dose: 100.0 mg/kg/injection, schedule: Q01DX009 (ip), vehicle: Klucel (hydroxypropylcellulose) (HPC)
[11] = dose: 100.0 mg/kg/injection, schedule: Q04DX002 (ip), vehicle: Klucel (hydroxypropylcellulose) (HPC)
[12] = dose: 200.0 mg/kg/injection, schedule: Q01DX009 (ip), vehicle: Klucel (hydroxypropylcellulose) (HPC)
[13] = dose: 200.0 mg/kg/injection, schedule: Q04DX002 (ip), vehicle: Klucel (hydroxypropylcellulose) (HPC)
[14] = dose: 400.0 mg/kg/injection, schedule: Q04DX002 (ip), vehicle: Klucel (hydroxypropylcellulose) (HPC)

Measured: T/C

CC(C)=CCC1=CC(=O)c2ccccc2C1=O
inactive: dose: 12.0 mg/kg/injection, schedule: Q01DX009 (ip), vehicle: water 97 % of control | dose: 25.0 mg/kg/injection, schedule: Q01DX009 (ip), vehicle: water 102 % of control | dose: 50.0 mg/kg/injection, schedule: Q01DX001 (ip), vehicle: water 96 % of control | dose: 50.0 mg/kg/injection, schedule: Q01DX009 (ip), vehicle: water 96 % of control | dose: 100.0 mg/kg/injection, schedule: Q01DX001 (ip), vehicle: water 102 % of control | dose: 100.0 mg/kg/injection, schedule: Q01DX009 (ip), vehicle: water 95 % of control | dose: 200.0 mg/kg/injection, schedule: Q01DX001 (ip), vehicle: water 105 % of control | dose: 400.0 mg/kg/injection, schedule: Q01DX001 (ip), vehicle: water 92 % of control

CCOC(=O)C1=C(OCOC)CCC(C(C)(C)C)C1 (stereo not given)
inactive: dose: 100.0 mg/kg/injection, schedule: Q01DX001 (ip), vehicle: Klucel (hydroxypropylcellulose) (HPC) 92 % of control | dose: 200.0 mg/kg/injection, schedule: Q01DX001 (ip), vehicle: Klucel (hydroxypropylcellulose) (HPC) 98 % of control

CCSCCOc1c(C(C)(C)C)cc([N+](=O)[O-])c(C)c1[N+](=O)[O-]
inactive: [1] 103 % of control | [2] 100 % of control | [3] 106 % of control

N#Cc1nc2c(nc1C#N)-c1ccccc1C2=O
inactive: [4] 99 % of control | [5] 94 % of control | dose: 12.5 mg/kg/injection, schedule: Q04DX003 (ip), vehicle: Klucel (hydroxypropylcellulose) (HPC) 104 % of control | dose: 25.0 mg/kg/injection, schedule: Q04DX003 (ip), vehicle: Klucel (hydroxypropylcellulose) (HPC) 112 % of control

COc1ccc(C2(OC)Oc3cc(OC)ccc3C(=O)C2(O)OC)cc1 (stereo not given)
inactive: [6] 98 % of control | [7] 104 % of control

CCC/C=C/CCCCCC
inactive: [8] 93 % of control | dose: 100.0 mg/kg/injection, schedule: Q01DX009 (ip), vehicle: saline with Tween-80 93 % of control | dose: 200.0 mg/kg/injection, schedule: Q01DX009 (ip), vehicle: saline with Tween-80 104 % of control

C=CC1CCCCC1C=C (stereo not given)
inactive: dose: 12.5 mg/kg/injection, schedule: Q01DX009 (ip), vehicle: saline with Tween-80 104 % of control | dose: 25.0 mg/kg/injection, schedule: Q01DX009 (ip), vehicle: saline with Tween-80 102 % of control | [8] 102 % of control

Cc1ccc([N+](=O)[O-])cc1NC(=O)Nc1cccc(F)c1
inactive: [4] 93 % of control | [5] 87 % of control | dose: 25.0 mg/kg/injection, schedule: Q01DX009 (ip), vehicle: Klucel (hydroxypropylcellulose) (HPC) 92 % of control | [9] 86 % of control

Cc1nc([N+](=O)[O-])cn1CCN1CCOCC1
inactive: dose: 50.0 mg/kg/injection, schedule: Q01DX009 (ip), vehicle: Klucel (hydroxypropylcellulose) (HPC) 102 % of control | [10] 94 % of control | [11] 92 % of control | [12] 102 % of control | [13] 105 % of control | [14] 105 % of control

O=[N+]([O-])c1ccc(NN=C2c3ccccc3Cc3ccccc32)c([N+](=O)[O-])c1
inactive: dose: 100.0 mg/kg/injection, schedule: Q04DX002 (ip), vehicle: saline with Tween-80 87 % of control | dose: 400.0 mg/kg/injection, schedule: Q04DX002 (ip), vehicle: saline with Tween-80 94 % of control

Cc1ccc2c(ccc(/C=C/c3ccnc4c(O)cccc34)[n+]2C)c1
inactive: dose: 25.0 mg/kg/injection, schedule: Q01DX001 (ip), vehicle: saline 99 % of control | dose: 35.0 mg/kg/injection, schedule: Q01DX001 (ip), vehicle: saline 111 % of control | dose: 55.0 mg/kg/injection, schedule: Q01DX001 (ip), vehicle: saline 119 % of control | dose: 85.0 mg/kg/injection, schedule: Q01DX001 (ip), vehicle: saline 123 % of control | dose: 132.0 mg/kg/injection, schedule: Q01DX001 (ip), vehicle: saline 115 % of control and 121 % of control | dose: 198.0 mg/kg/injection, schedule: Q01DX001 (ip), vehicle: saline 117 % of control

Cc1ccc(CSCc2ccc(C)cc2)cc1
inactive: [10] 100 % of control | [12] 96 % of control | [9] 92 % of control

CC(C)(C)[Se]C(=N)N
inactive: dose: 18.8 mg/kg/injection, schedule: Q01DX001 (ip), vehicle: saline with Tween-80 101 % of control | dose: 37.5 mg/kg/injection, schedule: Q01DX001 (ip), vehicle: saline with Tween-80 100 % of control | dose: 50.0 mg/kg/injection, schedule: Q01DX001 (ip), vehicle: saline with Tween-80 107 % of control | dose: 75.0 mg/kg/injection, schedule: Q01DX001 (ip), vehicle: saline with Tween-80 95 % of control

Cc1nc2c(c(=O)[nH]1)OCN(C)C2
inactive: [6] 104 % of control | [7] 101 % of control | dose: 200.0 mg/kg/injection, schedule: Q01DX001 (ip), vehicle: saline 109 % of control | dose: 400.0 mg/kg/injection, schedule: Q01DX001 (ip), vehicle: saline 122 % of control

CNC(=O)Oc1ccc(C=Nc2cccc([N+](=O)[O-])c2)cc1
inactive: [10] 101 % of control | [12] 95 % of control | [9] 100 % of control

CN(C)CCC[N+]1([O-])c2ccccc2CCc2ccccc21
inactive: dose: 9.37 mg/kg/injection, schedule: Q01DX009 (ip), vehicle: saline 102 % of control | dose: 18.75 mg/kg/injection, schedule: Q01DX009 (ip), vehicle: saline 108 % of control | dose: 18.75 mg/kg/injection, schedule: Q04DX003 (ip), vehicle: saline 102 % of control | dose: 37.5 mg/kg/injection, schedule: Q01DX009 (ip), vehicle: saline 97 % of control | dose: 37.5 mg/kg/injection, schedule: Q04DX003 (ip), vehicle: saline 96 % of control | dose: 75.0 mg/kg/injection, schedule: Q01DX009 (ip), vehicle: saline 102 % of control | dose: 75.0 mg/kg/injection, schedule: Q04DX003 (ip), vehicle: saline 96 % of control | dose: 150.0 mg/kg/injection, schedule: Q04DX003 (ip), vehicle: saline 88 % of control

O=CC(CO)C(C=O)n1ncc2ccccc21 (stereo not given)
inactive: dose: 50.0 mg/kg/injection, schedule: Q01DX005 (ip), vehicle: water 112 % of control

CC(C)(C)NC(=O)Oc1ccc(-c2ccccc2)cc1Cl
inactive: [10] 95 % of control | [12] 100 % of control | [9] 100 % of control

C1CN(CSCN2CCOCC2)CCO1
inactive: dose: 100.0 mg/kg/injection, schedule: Q04DX003 (ip), vehicle: saline 106 % of control | dose: 200.0 mg/kg/injection, schedule: Q04DX003 (ip), vehicle: saline 97 % of control | dose: 400.0 mg/kg/injection, schedule: Q04DX003 (ip), vehicle: saline 97 % of control

CSC(=N)c1cccc(OCc2ccccc2)c1
inactive: [10] 113 % of control | [11] 100 % of control | [1] 102 % of control | [12] 96 % of control | [13] 103 % of control | [2] 102 % of control | [14] 94 % of control | [3] 102 % of control

CCOC(=O)/C=C\CC(O)CC (stereo not given)
inactive: [10] 105 % of control | dose: 100.0 mg/kg/injection, schedule: Q04DX003 (ip), vehicle: Klucel (hydroxypropylcellulose) (HPC) 98 % of control | [12] 105 % of control | dose: 200.0 mg/kg/injection, schedule: Q04DX003 (ip), vehicle: Klucel (hydroxypropylcellulose) (HPC) 104 % of control | [9] 118 % of control | dose: 400.0 mg/kg/injection, schedule: Q04DX003 (ip), vehicle: Klucel (hydroxypropylcellulose) (HPC) 114 % of control

CC(=O)NC1C(OC(C)=O)OC(COC(c2ccccc2)(c2ccccc2)c2ccccc2)C(OS(C)(=O)=O)C1OC(C)=O (stereo not given)
inactive: dose: 50.0 mg/kg/injection, schedule: Q04DX003 (ip), vehicle: saline with Tween-80 109 % of control | dose: 100.0 mg/kg/injection, schedule: Q04DX003 (ip), vehicle: saline with Tween-80 109 % of control and 91 % of control | dose: 200.0 mg/kg/injection, schedule: Q04DX003 (ip), vehicle: saline with Tween-80 121 % of control | dose: 400.0 mg/kg/injection, schedule: Q04DX003 (ip), vehicle: saline with Tween-80 88 % of control
